The values that follow come from patent US20080032418A1, “Cell Free Assay Systems For Identifying A Substance Of Interest” (priority 2003, published 2008).

Assay [1] has as its target T1, serotonin receptor 5HT2C with a C-terminal His tag (Rattus norvegicus, UniProt P08909).
T1 construct: made in house; host or cells: bacteria (E. coli is named as the preferred host for the MBP system)
T1 sequence (P08909 with tags, fused parts or gaps): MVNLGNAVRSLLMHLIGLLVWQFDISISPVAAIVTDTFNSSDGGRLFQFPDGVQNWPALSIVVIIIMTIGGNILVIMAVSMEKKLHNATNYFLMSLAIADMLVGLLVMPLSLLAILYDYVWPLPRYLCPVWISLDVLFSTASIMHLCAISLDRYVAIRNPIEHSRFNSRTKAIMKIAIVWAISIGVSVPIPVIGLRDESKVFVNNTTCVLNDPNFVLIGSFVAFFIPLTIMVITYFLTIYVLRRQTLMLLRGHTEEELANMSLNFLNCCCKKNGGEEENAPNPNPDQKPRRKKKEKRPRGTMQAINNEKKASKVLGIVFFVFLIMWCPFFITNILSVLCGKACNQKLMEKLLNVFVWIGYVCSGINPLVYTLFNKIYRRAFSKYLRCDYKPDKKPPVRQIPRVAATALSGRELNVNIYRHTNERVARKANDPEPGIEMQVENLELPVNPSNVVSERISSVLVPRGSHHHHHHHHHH
In words: immunoprecipitation binding assay (anti-MBP, protein A beads, imidazole elution, fluorescence). The settings on record: receptor 0.2 μM, perylene 0.4 μM, overnight at 4° C.; FIGS. 5-7. As for the experimental part: In these experiments, the affinity purified receptor (0.2 μM), and either compound 1, or control glycine-perylene (0.4 μM), were combined, in a total volume of 0.1 ml, and incubated on a rocking platform overnight, at 4° C. Further controls were provided, by taking samples of the two perylene molecules and treating them in the absence of protein.
All washes were retained for fluorescence measurements.
Perylene molecules were eluted from the bead bound proteins using 0.5M imidazole. Fluorescence of all samples and washes was measured, using a spectrofluorometer, excitation at 480 nm, and emission scan at 500-650 nm. Peak fluorescence was detected at 533-535 nm.

Assay [2] concerns any of the receptor molecules described in example 1. The following applies: 1.1 μM receptor, 2.5 μM compound 1, overnight at 4° C., Superose 6 gel filtration, excitation 485 nm, emission 535 nm. Background: SEC sorts molecules by how far they enter the pores of the column.
Description: This example describes the chelation of the compound of example 4 to any of the receptor molecules described in example 1 and purification of the receptor-perylene complexes by gel filtration chromatography.
The receptor was affinity purified, following standard methods, and 1.1 μM of the molecule was combined with 2.5 μM of compound 1, in a total volume of 0.5 ml. The materials were incubated on a rocking platform, overnight, at 4° C. The mixture was then loaded onto a 20 ml column of Superose 6 Prep gel filtration media, and washed with running buffer (20 mM Tris, pH 7.4, 150 mM NaCl, 0.05% maltoside/0.01% CHS), to remove any unbound perylene. A total of 60 separate, 0.5 ml fractions were collected. A portion of each fraction was loaded into 60 wells of a 96 well plate, and fluorescence was measured at an excitation of 485 nm, and emission of 535 nm. Since the fluorescence quantum yield of perylene bound to receptor differs from that of unbound perylene, fluorescence was also measured after dissociating receptor-perylene complexes by adding imidazole to a final concentration of 0.5M to each of the fractions. A portion of each column fraction was loaded onto denaturing polyacrylamide gel, separated by electrophoreses, transferred to PVDF membranes, and receptor protein containing fractions were identified, using anti-MBP antibodies.

The structures appear in SMILES notation.

`CCCCCCC(CCCCCC)N1C(=O)c2ccc3c4ccc5c6c(ccc(c7ccc(c2c37)C1=O)c64)C(=O)N(CCCCC(C(=O)[O-])N(CC(=O)[O-])CC(=O)O)C5=O.[Ni+2]` (centres unmarked) [compound 1, N-(1-hexylheptyl)-N′-(nickel (II)-5-(1-carboxyl-1-(N-dicarboxylmethyl)pentyl))perylene-3,4,9,10-tetracarboxylic-diimide]: the “binding to the receptor (fluorescence following overnight elution with 0.5M imidazole)” value in assay [1] was “bound to the receptor and required elution”. Moreover, the “portion of the total perylene bound to receptor protein” value in assay [2] is “roughly one-third”.
